Source: patent US11655247B2, “Nanoluc suicide substrates” (PROMEGA CORPORATION, priority 2018, dated 2023)
“Also recorded” adds a separate entry of the source.

Legend:
[1] = system: NanoLuc-HaloTag fusion protein; assay: Direct and two-step labeling with TCO-tetrazine or DBCO-azide pair, fluorescence imaging on SDS/PAGE gel; assay type: biochemical; settings: for Two-step labeling with tetrazine-FAM (JRW-1577): second step tetrazine-FAM (JRW-1577)
Protocol: Similar to the previous example, NanoLuc-HaloTag protein was incubated with compounds to either directly label or label via the two-step process with FAM. Compounds were incubated with the NanoLuc-HaloTag fusion protein and analyzed by florescence imaging on SDS/PAGE gel.

[2] = molecular target: T1, NanoLuc (Oplophorus gracilirostris, UniProt Q9GV45, A31E/A60N/A81I/F95D/I117V/K70R/L54V/L99Q/M102K/N193R/P142E/Q151K/Q38R/Q45L/V71I/Y165I); assay type: biochemical; settings: relative value, Furimazine set to 1; NanoLuc; read three minutes after substrate addition
T1 sequence (Q9GV45 28-196 with tags or gaps with the stated changes limits assumed): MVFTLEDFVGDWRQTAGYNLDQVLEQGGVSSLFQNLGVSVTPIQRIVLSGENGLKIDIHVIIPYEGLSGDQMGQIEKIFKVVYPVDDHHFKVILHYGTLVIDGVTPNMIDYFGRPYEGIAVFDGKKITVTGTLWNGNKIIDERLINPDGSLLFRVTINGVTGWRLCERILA
Protocol: Luminescence Assay Procedure:
Each compound to be screened was dissolved in DMSO (5 mM) and then further diluted to 100 μM in NANO-GLO® Luciferase Assay Buffer. Km values were determined by first serially diluting substrates two-fold into NANO-GLO® Luciferase Assay Buffer. Substrate dilutions were then combined with an equal volume of NanoLuc diluted to 4 ng/ml in TBS+0.01% BSA. Autoluminescence was measured by combining the 100 uM dilution of substrate with TBS+0.01% BSA. Luminescence and autoluminescence values were measured in a GloMax®-Multi+ luminometer three minutes after substrate addition. Signal decay was measured by combining equal volumes of 100 uM of substrate with 4 ng/ml NanoLuc in TBS+0.01% BSA and then samples were read in five minute intervals for two hours using a GloMax®-Multi+. Km was calculated using GraphPad Prism using nonlinear Michaelis-Menten regression. Signal half-life values were calculated using GraphPad Prism Non-linear decay, plateau set to zero.

[3] = molecular target: T1, NanoLuc; assay: Inhibition of NanoLuc luciferase: blocking of furimazine luminescence after pre-incubation; assay type: biochemical; settings: for Inhibition of NanoLuc (bioluminescence upon later furimazine addition): compound incubated with NanoLuc first, then furimazine (10 μM) added
Protocol: Compounds were also tested for their ability to block furimazine luminescence with NanoLuc. Typically, NanoLuc (0.4 μg/mL) in DMEM was incubated with either furimazine or test compound (50 μM) while monitoring RLU's with a GloMax® luminometer for 10-60 minutes. After the set time, the plate was removed from the instrument, and a dose of furimazine (10 μM) was added to the well containing the test compound and monitored for 10-60 minutes.
FIGS. 3A-B depicts inhibition of Nluc luciferase by furimazine-h. Furimazine-h (10 μM) was incubated with NanoLuc in NanoGlo or DMEM for 15 or 10 minutes, respectively. This bright signal rapidly degrades to a fraction of the signal observed in the furimazine positive control wells.
FIG. 9 depicts inhibition of Nluc luciferase by furimazine-h. This is a reverse addition experiment as compared to FIG. 3. Furimazine (10 μM) was incubated with NanoLuc in NanoGlo® buffer for 15 minutes.
JRW-0855 and JRW-1088 were incubated with NanoLuc in DMEM for 12 minutes. […] After the incubation period, 10 μM furimazine was added to the well.

[4] = molecular target: NanoBiT™ Binary luciferase (Oplophorus gracilirostris, UniProt Q9GV45, A31E/A60N/A81I/F95D/I117V/K70R/L54V/L99Q/M102K/P142E/Q151K/Q38R/Q45L/V71I/Y165I); assay: Inhibition of NanoBiT Binary luciferase (HiBiT + LgBiT); assay type: biochemical
Chain of NanoBiT™ Binary luciferase (Q9GV45 other isoform, or with tags, fused parts or gaps with the stated changes): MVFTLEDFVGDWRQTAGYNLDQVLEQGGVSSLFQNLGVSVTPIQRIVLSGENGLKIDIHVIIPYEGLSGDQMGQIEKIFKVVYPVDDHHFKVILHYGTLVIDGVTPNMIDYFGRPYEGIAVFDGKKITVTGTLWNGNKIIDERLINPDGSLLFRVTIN
Protocol: Compounds were also tested for their ability to inhibit the NanoBiT™ Binary luciferase. HiBiT (SEQ ID NO: 3) and LgBiT (SEQ ID NO: 4) (two subunits of the NanoBiT™ luciferase) were incubated with furimazine or furimazine-h for 15 minutes. Following the incubation period, 10 μM furimazine was added. […] This signal rapidly degrades to a fraction of the signal observed in the furimazine positive control wells. Addition of furimazine to the furimazine positive control wells results in an increase in bioluminescence.

[5] = system: NanoLuc-HaloTag (Nluc-HT); assay: Fluorescent labeling of NanoLuc-HaloTag, SDS/PAGE fluorescence imaging; assay type: biochemical; settings: 0.5 μM protein, 50 μM label, 30 minutes, room temperature
Protocol: The efficiency of the NanoLuc suicide substrates was compared with a chloroalkane-FAM substrate with a fusion protein in which the HaloTag protein (SEQ ID NO: 5) is fused to either glutathione transferase (GST) or NanoLuc.
Either FAM chloroalkane or coelenterazine FAM substrate was incubated with glutathione transferase-HaloTag (GST-HT) or NanoLuc-HaloTag (Nluc-HT) fusions. The reactions were with 0.5 μM protein (GST-HT or Nluc-HT) and 50 μM of label (100× excess of label) and incubated for 30 minutes at room temperature. The sample titrations of each sample were then loaded to the SDS/PAGE gel. The fluorescence (473ex) (Cy2 filter set) was read and quantified. […] Results are quantified in FIG. 8B.

[6] = Stability in solution noted at preparation; assay type: physicochemical; settings: note at preparation
[7] = system: NanoLuc-HaloTag; assay: Direct and two-step labeling with azide-DBCO pair, fluorescence imaging on SDS/PAGE gel; assay type: biochemical; settings: 50 uM compound 1 hour, then 100 uM DBCO-FAM 4 hours
Protocol: In Example 26, a dye-appended suicide substrate is shown by fluorescence imaging to label NanoLuc. In this example, a suicide substrate with an appended azide is shown to label a NanoLuc-HaloTag protein in a two-step procedure in which the second step is copper-free click chemistry with a DBCO appended FAM dye. […] Structures of the compounds used in this example are illustrated in FIG. 10A.
0.5 uM NanoLuc-HaloTag in 100 mM Tris pH 8.0 was incubated for 1 hour with 50 uM of: Tube 1—JRW-1505; Tube 2—FAM-HaloTag ligand; Tube 3—JRW-0926; Tube 4—JRW-0975; Tube 5—JRW-1022; and Tube 6—SE-azide. In the second step, 100 uM DBCO-FAM was incubated for 4 hours in Tubes 1, 4, 5, and 6, followed by SDS/PAGE gel for all samples (FIG. 10B). The fluorescence (473ex) (Cy2 filter set) of bands corresponding to the size of NanoLuc-HaloTag was read and quantified.
In a second experiment, 1.5 uM NanoLuc-HaloTag in 100 mM Tris (or DPBS buffer) pH 8.0 was incubated with 50 uM of JRW-0975, FAM-HaloTag ligand, JRW-0926, JRW-1022, or SE-azide for 1 hour. In the second step, 100 uM DBCO-FAM was incubated for 4 hours with tubes 3, 4, and 5, followed by SDS/PAGE gel (FIG. 11A). The fluorescence (473ex) (Cy2 filter set) of bands corresponding to the size of NanoLuc-HaloTag was read and quantified (FIG. 11B).

Row | Structure (SMILES) | RLU (at 100 μM) [2] | Inhibition of NanoLuc (bioluminescence upon later furimazine addition) [3] | Stability in solution [6] | other results
1 | O=C(NCCOCCOCCCCCCCl)OC1CC/C=C/CCC1 (centres unmarked) [JRW-1567, (E)-cyclooct-4-en-1-yl (2-(2-((6-chlorohexyl)oxy)ethoxy)ethyl)carbamate] | – | – | – | Two-step labeling with tetrazine-FAM (JRW-1577) [1]: two-step labeling occurs
2 | O=c1c(Cc2ccco2)nc2c(Cc3ccccc3)[nH]c(-c3ccc(O)cc3)cn1-2 [Furimazine-h, 8-benzyl-2-(furan-2-ylmethyl)-6-(4-hydroxyphenyl)imidazo[1,2-a]pyrazin-3(7H)-one, reference compound] | 1 | NanoLuc is inhibited; also recorded: exemplary suicide substrates of NanoLuc | – | Inhibition of NanoLuc, reverse addition ([3]; furimazine (10 μM) with NanoLuc in NanoGlo buffer 15 minutes, then compound added): rapid signal decay; Inhibition of NanoBiT luciferase ([4]; 15 minutes incubation, then 10 μM furimazine added): effectively inhibited; Initial luminescent signal compared with furimazine ([4]; HiBiT and LgBiT incubated with compound): comparable to that of furimazine
3 | [N-]=[N+]=NCCCCCCCCOc1ccc(Cc2nc3c(Cc4ccccc4)[nH]c(-c4ccc(O)cc4)cn-3c2=O)cc1F [JRW-1022, 2-(4-((8-azidooctyl)oxy)-3-fluorobenzyl)-8-benzyl-6-(4-hydroxyphenyl)imidazo[1,2-a]pyrazin-3(7H)-one] | – | partial Nluc inhibitors | – | Two-step labeling with DBCO-FAM ([1]; second step DBCO-FAM): two-step labeling occurs
4 | O=C(NCCCCCCCCOc1ccc(Cc2nc3c(Cc4ccccc4)[nH]c(-c4ccc(O)cc4)cn-3c2=O)cc1F)c1ccc(C(=O)[O-])c(-c2c3ccc(O)cc3[o+]c3cc(O)ccc23)c1 [JRW-0906, 4-((8-(4-((8-benzyl-6-(4-hydroxyphenyl)-3-oxo-3,7-dihydroimidazo[1,2-a]pyrazin-2-yl)methyl)-2-fluorophenoxy)octyl)carbamoyl)-2-(3,6-dihydroxyxanthylium-9-yl)benzoate] | 0.036 | exemplary suicide substrates of NanoLuc | – | Labeling efficiency relative to the chloroalkane-HT system [5]: ~50%
5 | O=C(NCCCCCCCCOc1ccc(Cc2nc3c(Cc4ccccc4)[nH]c(-c4ccc(O)cc4)cn-3c2=O)cc1F)OC1CC/C=C/CCC1 (centres unmarked) [JRW-1566, (E)-cyclooct-4-en-1-yl (8-(4-((8-benzyl-6-(4-hydroxyphenyl)-3-oxo-3,7-dihydroimidazo[1,2-a]pyrazin-2-yl)methyl)-2-fluorophenoxy)octyl)carbamate] | – | – | – | Two-step labeling with tetrazine-FAM (JRW-1577) [1]: two-step labeling of NanoLuc
6 | CC(=O)Oc1ccc2c(c1)Oc1cc(OC(C)=O)ccc1C21OC(=O)c2ccc(C(=O)NCCCCCCCCOc3ccc(Cc4nc5c(Cc6ccccc6)[nH]c(-c6ccc(O)cc6)cn-5c4=O)cc3F)cc21 [JRW-0972, 6-((8-(4-((8-benzyl-6-(4-hydroxyphenyl)-3-oxo-3,7-dihydroimidazo[1,2-a]pyrazin-2-yl)methyl)-2-fluorophenoxy)octyl)carbamoyl)-3-oxo-3H-spiro[isobenzofuran-1,9′-xanthene]-3′,6′-diyl diacetate] | 0.00005 | did not inhibit NanoLuc | instability in solution | –
7 | [N-]=[N+]=NCCOCCOCCC(=O)NCCOCCOCCCCCCCl [JRW-1505, 3-(2-(2-azidoethoxy)ethoxy)-N-(2-(2-((6-chlorohexyl)oxy)ethoxy)ethyl)propanamide] | – | – | – | Two-step labeling with DBCO-FAM [7]: two-step labeling occurs
8 | COc1cc2c(c(Cl)c1OC(C)=O)Oc1c(cc(OC)c(OC(C)=O)c1Cl)C21OC(=O)c2ccc(C(=O)NCCCCCCCCOc3ccc(Cc4nc5c(Cc6ccccc6)[nH]c(-c6ccc(O)cc6)cn-5c4=O)cc3F)cc21 [JRW-0986, 6-((8-(4-((8-benzyl-6-(4-hydroxyphenyl)-3-oxo-3,7-dihydroimidazo[1,2-a]pyrazin-2-yl)methyl)-2-fluorophenoxy)octyl)carbamoyl)-4′,5′-dichloro-2′,7′-dimethoxy-3-oxo-3H-spiro[isobenzofuran-1,9′-xanthene]-3′,6′-diyl diacetate] | 0.00005 | did not inhibit NanoLuc | instability in solution | –
9 | CN(C)c1ccc2c(-c3cc(C(=O)NCCCCCCCCOc4ccc(Cc5nc6c(Cc7ccccc7)[nH]c(-c7ccc(O)cc7)cn-6c5=O)cc4F)ccc3C(=O)[O-])c3ccc(N(C)C)cc3[o+]c2c1 [JRW-0912, 4-((8-(4-((8-benzyl-6-(4-hydroxyphenyl)-3-oxo-3,7-dihydroimidazo[1,2-a]pyrazin-2-yl)methyl)-2-fluorophenoxy)octyl)carbamoyl)-2-(3,6-bis(dimethylamino)xanthylium-9-yl)benzoate] | 0.000061 | did not inhibit NanoLuc | instability in solution | –
10 | O=C(CCC(=O)N1Cc2ccccc2C#Cc2ccccc21)NCCCCCCCCOc1ccc(Cc2nc3c(Cc4ccccc4)[nH]c(-c4ccc(O)cc4)cn-3c2=O)cc1F [JRW-1549, N^1-(8-(4-((8-benzyl-6-(4-hydroxyphenyl)-3-oxo-3,7-dihydroimidazo[1,2-a]pyrazin-2-yl)methyl)-2-fluorophenoxy)octyl)-N^4-DBCO-succinamide] | – | – | – | Two-step labeling with Azide-FAM ([1]; second step Azide-FAM): little to no labeling
11 | CN(C)c1ccc2c(-c3cc(C(=O)NCCCCCCOc4ccc(Cc5nc6c(Cc7ccccc7)[nH]c(-c7ccc(O)cc7)cn-6c5=O)cc4F)ccc3C(=O)[O-])c3ccc(N(C)C)cc3[o+]c2c1 [JRW-0857, 4-((6-(4-((8-benzyl-6-(4-hydroxyphenyl)-3-oxo-3,7-dihydroimidazo[1,2-a]pyrazin-2-yl)methyl)-2-fluorophenoxy)hexyl)carbamoyl)-2-(3,6-bis(dimethylamino)xanthylium-9-yl)benzoate] | 0.00000029 | did not inhibit NanoLuc | instability in solution | –
